V = bicyclic LNA-type nucleotide of structure V in the publication's (LNA marked in bold); l = locked nucleic acid (LNA); d = 2'-deoxy (DNA)

One series concerns 5′-d(AAAATAAAA)-3′. The series is described as follows: Tm of duplex (spectrophotometric melting curves). It is filed as binding. The conditions noted are these: vs 5′-d(AAAATAAAA)-3′ (mismatch); 10 mM Na2HPO4 pH 7.0, 100 mM NaCl, 0.1 mM EDTA. As for the experimental part: (§1) Thermostability of oligonucleotides containing monomers of formula V, X, Y and Z^T, Z^U, Z^G, Z^C, Z^A, Z^MeC. The thermostability of the LNA modified oligonucleotides were determined spectrophotometrically using a spectrophotometer equipped with a thermoregulated Peltier element. Hybridisation mixtures of 1 ml were prepared containing either of 3 different buffers (10 mM Na2HPO4, pH 7.0, 100 mM NaCl, 0.1 mM EDTA; 10 mM Na2HPO4 pH 7.0, 0.1 mM EDTA; 3M tetramethylammoniumchlorid (TMAC), 10 mM Na2HPO4, pH 7.0, 0.1 mM EDTA) and equimolar (1 μM or 1.5 μM) amounts of the different LNA modified oligonucleotides and their complementary or mismatched DNA or RNA oligonucleotides. Identical hybridisation mixtures using the unmodified oligonucleotides were prepared as references. The Tm's were obtained as the first derivative of the melting curves. FIG. 2 illustrates the monomeric LNAs used. The nomenclature V, X, Y and Z^T, Z^U, Z^G, Z^C, Z^A, Z^MeC refer to structures V, X, Y and Z of FIG. 2. In the tables, the nucleobases of the LNA monomers are indicated. Furthermore, for the thio and amino variants of the LNA structure Z of the last two tables, the nomenclature used is, e.g., Z^TS and Z^TNH, respectively.

The subject of another series is 5′-d(AAAAGAAAA)-3′. The series is described as follows: Tm of duplex (spectrophotometric melting curves). It is filed as binding. The conditions noted are these: vs 5′-d(AAAAGAAAA)-3′ (mismatch); 10 mM Na2HPO4 pH 7.0, 100 mM NaCl, 0.1 mM EDTA. Here is the method:
as §1

A further series concerns 5′-(AAAAAAAAAAAAAA)-3′. The series is described as follows: Tm of duplex (spectrophotometric melting curves). The class given is binding. The conditions noted are these: vs RNA 5′-(AAAAAAAAAAAAAA)-3′; 10 mM Na2HPO4 pH 7.0, 100 mM NaCl, 0.1 mM EDTA. Here is the method: as §1
For a further series, the system named is 5′-d(AAAAAAAAAAAAAA)-3′. The series is described as follows: Tm of duplex (spectrophotometric melting curves). The following applies: vs 5′-d(AAAAAAAAAAAAAA)-3′; 10 mM Na2HPO4 pH 7.0, 100 mM NaCl, 0.1 mM EDTA. The class given is binding. Here is the method:
as §1

A further series has as its system 5′-d(AAAACAAAA)-3′. Briefly: Tm of duplex (spectrophotometric melting curves). The class given is binding. The following applies: vs 5′-d(AAAACAAAA)-3′ (mismatch); 10 mM Na2HPO4 pH 7.0, 100 mM NaCl, 0.1 mM EDTA. As for the experimental part:
as §1

Another series relates to 5′-(AAAAAAGAAAAAAA)-3′. The series is described as follows: Tm of duplex (spectrophotometric melting curves). The following applies: vs RNA 5′-(AAAAAAGAAAAAAA)-3′ (mismatch); 10 mM Na2HPO4 pH 7.0, 100 mM NaCl, 0.1 mM EDTA. It is filed as binding. Here is the method:
as §1

The test system of the next series is δ opioid receptor. Briefly: Warm water tail flick test, [D-Ala2]deltorphin-induced antinociception. It is filed as in vivo, rats. The conditions noted are these: 60 μg, i.th, saline-treated controls, 52° C. water. As for the experimental part:
Blockade by Antisense Locked Nucleic Acids (LNA) of [D-Ala2]Deltorphin-Induced Antinociception in the Warm Water Tail Flick Test in Conscious Rats. Male Sprague-Dawley rats (300 g) were implanted with an intrathecal (i.th). polyethylene catheter and allowed to recover for at least 5 days before start of injections (including controls). The antisense LNA compounds (12.5 and 2.5 μg per injection) were administered in a 5 μl volume twice-daily (08.00 and 17.00 h) for 3 days. No signs of non-specific effects or toxicity could be detected, as shown by observations of locomotor behavior and measurements of body weight. The day after the last injection the rats were injected with [D-Ala2]deltorphin (60 μg, i.th) and tested in the warm water (52° C.) tail flick test for δ opioid receptor-mediated antinociception. Data are presented in FIG. 14 as medians based on 6-8 animals per group (data converted to percent maximum possible response, % MPE). Statistical analyses were performed by means of Kruskal-Wallis 1-way ANOVA by ranks, followed by comparisons of treatments versus control.

Series [1] deals with human MCF-7 breast cancer cells.
For series [2], the system named is MCF-7 human breast cancer cells.
The test system is the same in series [3]. The source holds these as a separate data set.
The subject of series [4] is terminal deoxynucleotidyl transferase (TdT). Briefly: Tailing of primers with dATP. The following applies: 4 pmol primer, 25 U TdT, 16 μM dATP, 90 min, 37° C. The class given is biochemical. Here is the method: The ability of terminal deoxynucleotidyl transferase (TdT) to tail LNA modified oligonucleotides depends on the design of the oligomer. The following 15mer primers and a mixture of 8 to 32 base oligonucleotide markers were 5′ end labelled with [γ^33P] ATP and T4 polynucleotide kinase (where LNA monomers are in bold):
Reactions were boiled for 5 min after labelling to remove any PNK activity. Four picomoles of each labelled primer, 25 U terminal deoxynucleotidyl transferase and 16 μM dATP were incubated in 25 μl 100 mM cacodylate buffer pH 7.2, 2 mM CoCl2 and 0.2 mM 2-mercapto-ethanol for 90 min at 37° C. The reactions were stopped by the addition of formamide stop solution and the reaction products run on a 19% polyacrylamide 7 M urea gel with the labelled markers. Autoradiography using Biomax film was carried out on the dry gel. […] Primer PZ2 (lane 5) was not extended under these reaction conditions. We conclude that the TdT enzyme will tolerate LNA monomers within the oligonucleotide, but not at the extreme 3′ end.

In a further series the target is Exonuclease III (Escherichia coli, UniProt P09030).
For series [5], the system named is Arabidopsis mRNA, AMV Reverse Transcriptase. Briefly: First strand cDNA synthesis priming. The class given is biochemical. The following applies: 42° C., 2 hours, vs anchored poly dT control. Here is the method: First Strand cDNA Synthesis Using Poly dT Primers Containing LNA T monomers. Reactions were set up in order to test the ability of poly dT primers containing LNA T residues to prime 1st strand cDNA synthesis. The following poly dT primers were tested (LNA monomers are in bold): […]
Reactions were set up as follows for each of the primers above: […]
This mix was then heated to 75° C. for 3 min and then allowed to cool at room temperature for at least 10 min.
The following was then added to each of the reactions:
The reactions were incubated at 42° C. for 2 hours. The reactions were then heated at 95° C. for 3 min before loading onto a 6% polyacrylamide 7M urea gel. The gel was fixed in 10% acetic acid/10% methanol before transferring to 3 MM paper and drying. The dried gel was exposed to Kodak Biomax autoradiography film overnight.

Take “5′-d(TTTTTTTTTT)-3′ (SEQ ID NO: 95): almost fully modified LNA oligomer containing exclusively Z^T (52-56) (LNA Z^T monomers)”: the “Tm (° C.) Na2HPO4/NaCl/EDTA” value turned out to be 65 °C in the series with 5′-d(AAAATAAAA)-3′; 55 °C in the series on 5′-d(AAAAGAAAA)-3′; 70 °C in the series on 5′-(AAAAAAAAAAAAAA)-3′; 80 °C in the series with 5′-d(AAAAAAAAAAAAAA)-3′; 63 °C in the series on 5′-d(AAAACAAAA)-3′.

For “5′-d(TTTTTTTTTTTTTT)-3′ (SEQ ID NO: 113): fully modified poly-T oligonucleotide of structure V (sugars from the 5' end V13 d1, backbone not given here)”, the entries for the “Tm (° C.) Na2HPO4/NaCl/EDTA” value in the series on 5′-(AAAAAAAAAAAAAA)-3′, in the series on 5′-d(AAAAAAAAAAAAAA)-3′ and in the series with 5′-(AAAAAAGAAAAAAA)-3′ were 42 °C, under 10 °C and 37 °C, respectively.

With `CC(C)[C@H](NC(=O)[C@H](CCC(=O)O)NC(=O)[C@H](Cc1ccccc1)NC(=O)[C@@H](C)NC(=O)[C@@H](N)Cc1ccc(O)cc1)C(=O)N[C@H](C(=O)NCC(=O)O)C(C)C` [deltorphin, [D-Ala2]deltorphin], the antinociceptive effect result with δ opioid receptor is recorded as “robust antinociceptive effect”.

Turning to “AL16: LNA oligo 5′-d(TGT GTG AAA TTG TTA T)-3′ (SEQ ID NO:57); also fluorescein/FITC-labelled (DNA TGTGTGAAATTGTTAT; LNA-containing, positions not given here, fluorescein label)”, the intracellular localisation result in series [1] was “predominantly was localised in the nuclei of the cells”. The “added radioactivity associated with cellular material” value in [2] is given as “approximately 0.8%”. Further, the “number of green fluorescent cells after additional 3 days” value in series [3] is on record as “appeared unaltered”.

Take “PZ2: 5′-GC ATG TGC TGG AGA T-3′ (SEQ ID NO: 13), single LNA monomer at the 3′ end (DNA GCATGTGCTGGAGAT; sugars from the 5' end d14 l1, backbone and methylation of C not given here)”: the tail length entry in series [4] is recorded as “not extended”. Besides, the “full length product left after the 5 minute incubation” value with Exonuclease III (10 Units Exonuclease III, 37° C., 5 min, primer hybridised to template) is reported as 62%. Moreover, in the series with Exonuclease III (in the absence of the enzyme), the “full length band, % of the signal” value is given as 96%.

On to “RTZ 5: poly dT primer 5′-TTT TTT TTT T-3′ (SEQ ID NO: 69) containing LNA T monomers (TTTTTTTTTT; LNA T monomers)”, for which the “priming of 1st strand cDNA synthesis” value in series [5] is recorded as “yield was significantly lower than that produced with the control oligo primer”.

For the origin of these results see patent US8080644B2, “Oligonucleotide analogues” (Exiqon A/S, priority 1997, dated 2011).
